Source: patent publication US20210186972A1, “FORMULATIONS AND METHODS FOR THE PREVENTION AND TREATMENT OF TUMOR METASTASIS AND TUMORIGENESIS” (THE UNITED STATES OF AMERICA, AS REPRESENTED BY THE …, priority 2018, published 2021)

Tested on: HeLa, PANC1 and PC3M cells; PANC1 xenograft tumor tissues
Assay: Nucleolar structure by electron microscopy and immunofluorescence in cancer cells and tumor tissues
Format: cell-based, human
Protocol: Representative electron micrographs are shown for HeLa cells (FIG. 21A; treated at 1 μM for 24 hours), primary pancreatic tumors (FIG. 21B), and liver metastases (FIG. 21C) from NSG PANC1 mice treated with vehicle (top) or 10 mg/kg metarrestin (bottom) for 7 days. […] Scale bar=1 μm.
100 nucleoli were randomly selected and analyzed to calculate nucleolar area as ((largest+shortest diameter)/2)^2×π). The comparison of mean nucleolar areas was performed using Mann Whitney U test, 2-tailed, n=4 animals per group.
To address the mechanisms by which metarrestin inhibits metastasis, cellular changes after metarrestin treatment were observed. Primary antibodies: 1:300 dilution for SH54 (anti-PTB antibody); 1:300 for Nopp140 (anti-human Nopp140 rabbit polyclonal serum RS8); 1:50 for UBF (F-9) (Santa Cruz Biotechnology); 1:100 for RPA194 (Santa Cruz Biotechnology); 1:100 for CUG-BP1 (3B1) (Santa Cruz Biotechnology); 1:10 for fibrillarin (Sigma Cat #: ANA-N); 1:1000 for SC35; 1:300 for paxillin (ab32084); 1:600 for vinculin (Sigma V9131). The fluorescein-conjugated secondary antibodies (Jackson ImmunoResearch) and ALEXA FLUOR antibodies (Thermofisher Scientific) were used at a dilution of 1:200. Samples were visualized on a Nikon ECLIPSE Ti-E inverted fluorescence microscope using NIS-Elements AR 3.2 software (Nikon).
The nucleolar disruption was reversible within 48 hours upon withdrawal of metarrestin (FIG. 47). Similar disruptions were observed among other treated cell lines, including PANC1 and PC3M cells (FIG. 48), primary tumor, and liver metastatic tissues in the PANC1 xenograft model (FIG. 21, right panels). […] The segregation of the nucleolar compartments observed by EM is believed to correspond to the nucleolar capping structures detected by immunofluorescence of nucleolar proteins (FIGS. 21A-21C, 23, and 50). […]

N=c1c2c(-c3ccccc3)c(-c3ccccc3)n(Cc3ccccc3)c2ncn1[C@H]1CC[C@H](O)CC1 [metarrestin]
Nucleolar structure (1 μM, electron microscopy): induced collapse of the nucleolus | Time to reversal of nucleolar disruption upon withdrawal (after 1 μM for 24 hours, HeLa cells): ≤ 48 h | Nucleolar volume (treated cell lines and cancer tissues, p<0.0001): significantly reduced
